Columns and labels:
[1] = biological target: T1, SERCA (Oryctolagus cuniculus, UniProt P04191); test: Functional potency of PLB variants by ATPase assay (reconstituted SERCA/PLB); assay type: biochemical; settings: shift in pCa for 50% activation of SERCA, 5 PLB/SERCA, mean±SEM
T1 construct: from tissue
Description: (§1) For intermolecular FRET, IAEDANS-SERCA was reconstituted with DABCYL-PLB essentially as described previously (see Reddy et al., (1999) J. Biol. Chem. 274:7649-7655; Reddy et al., (1995) J. Biol. Chem. 270:9390-9397; Reddy et al., (1996) J. Biol. Chem. 271:14964-14970) but adapted to modify the SERCA membrane concentration (molar ratio, SERCA/1000 lipids) and PLB-to-SERCA ratio (molar ratio PLB/SERCA). The desired amount of DABCYL-PLB in methanol and lipids (DOPC and DOPE, 4:1 weight ratio in chloroform) were gently mixed and dried over nitrogen gas to create a thin film. Residual solvent was removed under vacuum and desiccant overnight. Lipids and peptides were solubilized in reconstitution buffer (5 mM MgCl2, 0.1M KCl, 10% glycerol, 20 mM MOPS, pH 7.0) by vortexing thoroughly, followed by mild sonication for 30 seconds to form unilamellar vesicles. C12E8 (2 mg/mg of lipid) was added to the tube. Detergent was removed over a 3 hour period using Biobeads SM2 (25 mg/mg of C12E8). FRET was measured immediately following reconstitution. Samples were frozen until gel electrophoresis.
(§2) ATPase activity was measured using an NADH-linked, enzyme-coupled microtiter plate assay (200 μL/well) as described in Karim et al., (2000) J. Biol. Chem. 276, 38814-9 and Reddy et al., (2003) Biochemistry 42, 4585-92. [Ca2+] was controlled by Ca/EGTA buffering by the method described in Fabiato et al., (1979) J. Physiol. (Paris) 75:463-505. The assays were detected at 340 nm on a Spectramax Plus microplate spectrophotometer (Molecular Devices) at 25° C. in the presence of ionophore A23187 to dissipate the Ca gradient building up across the membranes due to ATPase activity. The data were plotted (V vs pCa) and fitted by the Hill equation: […]
where V is the initial ATPase rate and n is the Hill coefficient. Data were normalized to the maximal rate, Vmax, which was obtained from the fit, and replotted to determine the shift in pKCa.
(§3) Functional potency was measured by ATPase assay as ΔpKCa, which stands for the shift in pCa value required for 50% activation of SERCA, at a ratio of 5 PLB/SERCA. FRET potency was measured as E(5), the energy transfer efficiency found at a ratio of 5 PLB/SERCA (N=4-6, mean±SEM).

[2] = biological target: T1, SERCA; test: FRET potency of PLB variants, IAEDANS-SERCA/DABCYL-PLB; assay type: binding; settings: energy transfer efficiency at 5 PLB/SERCA, mean±SEM
Description: as §1
(§4) The plates were read at 25° C. using a Gemini EM fluorescence microplate reader, with bottom excitation at 350 nm (6 flashes). The spectra were obtained with 10 nm resolution between 420 and 600 nm (PMT sensitivity set to High). Total read time per plate was estimated to be 20 minutes.
The free calcium concentration, [Ca^2+], was controlled by Ca/EGTA buffering, calculated by the method disclosed in Fabiato et al., (1979) J. Physiol. (Paris) 75:463-505. Measurements were conducted in low-Ca (pCa 6.5) buffer (50 mM KCl, 5 mM MgCl2, 0.5 mM EGTA, 210 μM CaCl2, 50 mM MOPS, pH 7.0), where the inhibitory effect of PLB was maximal.
(§5) The fluorescence resonance energy transfer efficiency (E) was calculated from the fractional decrease of steady-state emission of the donor (FD) due to the presence of the acceptor (FDA):
as §3

[3] = test system: SERCA-PLB complex; test: Competition of LOF PLB mutants with active PLB, ATPase activity; assay type: biochemical; settings: 5 moles each per mole SERCA
Experimental: as §2
(§6) The competition of WT-PLB and PLB derivatives was assessed by ATPase activity (e.g., Example 11) and FRET assays (e.g., Example 8). A reconstituted sample containing 5 moles of acceptor-labeled active PLB (WT or I40A) and 5 moles of an unlabeled loss-of-function (LOF) mutant (L31A or S16E) per mole of SERCA was compared with a control, a reconstituted sample with 5 moles of an active PLB (WT or I40A) per mole of SERCA. Competition was measured as the fractional decrease in ΔpKCa or FRET efficiency E, due to the presence of the LOF mutant (N=3-6, mean±SEM).

[4] = test system: SERCA-PLB complex; test: Competition of LOF PLB mutants with acceptor-labeled active PLB, FRET; assay type: binding; settings: 5 moles each per mole SERCA
Experimental: as §4, §5, §6

[5] = test system: LNCaP prostate cancer cells; settings: administration of thapsigargin; cited from earlier work
[6] = competitor vs acceptor-labeled I40A PLB
[7] = competitor vs acceptor-labeled WT PLB

T1 sequence (P04191 1-994 isoform P04191-2): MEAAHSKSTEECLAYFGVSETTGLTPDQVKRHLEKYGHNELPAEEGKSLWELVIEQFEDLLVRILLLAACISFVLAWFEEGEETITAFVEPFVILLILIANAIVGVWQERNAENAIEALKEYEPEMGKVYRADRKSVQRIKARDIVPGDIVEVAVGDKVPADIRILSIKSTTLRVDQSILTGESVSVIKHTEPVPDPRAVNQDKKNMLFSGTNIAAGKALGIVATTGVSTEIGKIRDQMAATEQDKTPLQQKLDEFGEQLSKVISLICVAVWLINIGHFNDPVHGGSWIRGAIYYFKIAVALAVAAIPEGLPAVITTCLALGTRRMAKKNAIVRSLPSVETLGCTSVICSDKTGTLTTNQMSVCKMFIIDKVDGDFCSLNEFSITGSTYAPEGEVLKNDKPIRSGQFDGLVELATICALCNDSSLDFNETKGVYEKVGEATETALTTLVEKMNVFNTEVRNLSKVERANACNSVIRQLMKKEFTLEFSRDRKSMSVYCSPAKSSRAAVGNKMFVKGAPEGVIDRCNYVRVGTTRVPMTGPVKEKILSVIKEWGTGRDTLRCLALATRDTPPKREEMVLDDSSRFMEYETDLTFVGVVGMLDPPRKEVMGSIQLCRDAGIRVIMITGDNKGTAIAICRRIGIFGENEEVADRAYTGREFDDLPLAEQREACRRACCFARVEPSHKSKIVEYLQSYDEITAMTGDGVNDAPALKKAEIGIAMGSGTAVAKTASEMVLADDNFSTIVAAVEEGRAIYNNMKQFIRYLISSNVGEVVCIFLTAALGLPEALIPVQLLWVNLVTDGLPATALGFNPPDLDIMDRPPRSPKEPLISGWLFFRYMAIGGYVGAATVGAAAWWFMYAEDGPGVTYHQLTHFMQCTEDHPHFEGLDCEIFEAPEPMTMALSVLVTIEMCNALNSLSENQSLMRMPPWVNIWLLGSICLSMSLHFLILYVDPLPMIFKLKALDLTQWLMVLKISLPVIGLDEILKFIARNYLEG

Compound | Functional potency (ΔpKCa) [1] | FRET potency, E(5) [2] | Functional relief (fractional decrease in ΔpKCa) ([3]; competitor vs I40A PLB) | Functional relief (fractional decrease in ΔpKCa) ([3]; competitor vs WT PLB) | FRET relief (fractional decrease in FRET efficiency E) [4, 6] | FRET relief (fractional decrease in FRET efficiency E) [4, 7] | growth of LNCaP prostate cancer cells in mice [5]
L31A: PLB derivative, leucine to alanine at position 31; loss-of-function (LOF) mutant (MEKVQYLTRSAIRRASTIEMPQQARQKLQNAFINFCLILICLLLICIIVMLL; UniProt P26678 1-52, looked up, variant L31A) | 0.05 ± 0.01 | 0.45 ± 0.03 | 0.47 ± 0.06 | 0.79 ± 0.04 | 0.18 ± 0.12 | 0.37 ± 0.06 | 
WT: wild-type phospholamban (PLB), made by solid-phase peptide synthesis | 0.18 ± 0.02 | 0.60 ± 0.03 |  |  |  |  | 
I40A: PLB derivative, isoleucine to alanine at position 40; monomeric, superinhibitory gain-of-function mutant (MEKVQYLTRSAIRRASTIEMPQQARQKLQNLFINFCLILACLLLICIIVMLL; UniProt P26678 1-52, looked up, variant I40A) | 0.48 ± 0.03 | 0.69 ± 0.03 |  |  |  |  | 
C/C=C(/C)C(=O)O[C@H]1C(C)=C2[C@H]([C@@H]1OC(=O)CCCCCCC)[C@@](C)(OC(C)=O)C[C@H](OC(=O)CCC)[C@@]1(O)[C@H]2OC(=O)[C@@]1(C)O [thapsigargin] |  |  |  |  |  |  | inhibited
S16E: PLB derivative, serine to glutamate at position 16; loss-of-function (LOF) mutant (MEKVQYLTRSAIRRAETIEMPQQARQKLQNLFINFCLILICLLLICIIVMLL; UniProt P26678 1-52, looked up, variant S16E) | 0.07 ± 0.02 | 0.69 ± 0.02 | 0.40 ± 0.03 | 0.83 ± 0.05 | 0.15 ± 0.08 | 0.27 ± 0.10 | 

Source: patent US8431356B2, “Fluorescence resonance energy transfer assays for sarco/endoplasmic reticulum calcium atpase and phospholamban” (Regents of the University of Minnesota, priority 2009, dated 2013)
